Reference: patent publication US20230049572A1, “FORMULATION, COMPOSITION OR FOODSTUFF ADDITIVES FOR THE MODIFICATION OF GLYCEMIC RESPONSE METHODS OF MANUFACTURING AND USING THE SAME” (HOOW FOODS PTE. LTD., priority 2019, published 2023)
pIC50: −log10 of the molar value. Read-outs that look alike come from different tables or passages of the source.

Tests used:
[1] = per dose / per meal; cited from earlier work
[2] = target: T1, bakers yeast a-glucosidase (Saccharomyces cerevisiae, UniProt P53341); assay: In vitro flavonoid inhibition of alpha-glucosidase (pNPG); type: biochemical
T1 construct: purchased Sigma-Aldrich
Description: The alpha-glucosidase inhibition was determined using purified alpha-glucosidase from yeast. An alpha-glucosidase reaction mixture contained 2.9 mM p-nitrophenyl-α-d-glucopyranoside (pNPG) (Sigma-Aldrich), 0.25 ml of flavonoid in DMSO and 0.6 U/ml of bakers yeast a-glucosidase (Sigma-Aldrich) in sodium phosphate buffer, pH 6.9. […] The reaction mixtures were incubated at 25° C. for 5 min, after which the reaction was stopped by boiling for 2 min. Absorbance of the resulting p-nitrophenol (pNP) were spectrophotometry determined at 405 nm and was considered directly proportional to the activity of the enzyme. Glucosidase activity inhibition was determined as percentage of control as follows:
In order to eliminate background readings, the absorbance of the flavenoid without substrate and enzyme was subtracted from absorbance of the flavonoid and substrate mixture as follows: Corrected A405 test samples=A405 flavonoid and substrate—A405 flavonoid alone (background).
The activity in controls (with a-glucosidase but without inhibitor) was considered to be 100%. […] Different flavonoids were compared on the basis of their ICso values estimated from the dose response curves.

alpha amylase = assay: Inhibition of alpha amylase (similar studies); type: biochemical
[3] = pNPG 2.9 mM, pH 6.9, 25° C., 5 min, read-out: IC50, inhibition of yeast alpha-glucosidase

T1 sequence (P53341 whole entry): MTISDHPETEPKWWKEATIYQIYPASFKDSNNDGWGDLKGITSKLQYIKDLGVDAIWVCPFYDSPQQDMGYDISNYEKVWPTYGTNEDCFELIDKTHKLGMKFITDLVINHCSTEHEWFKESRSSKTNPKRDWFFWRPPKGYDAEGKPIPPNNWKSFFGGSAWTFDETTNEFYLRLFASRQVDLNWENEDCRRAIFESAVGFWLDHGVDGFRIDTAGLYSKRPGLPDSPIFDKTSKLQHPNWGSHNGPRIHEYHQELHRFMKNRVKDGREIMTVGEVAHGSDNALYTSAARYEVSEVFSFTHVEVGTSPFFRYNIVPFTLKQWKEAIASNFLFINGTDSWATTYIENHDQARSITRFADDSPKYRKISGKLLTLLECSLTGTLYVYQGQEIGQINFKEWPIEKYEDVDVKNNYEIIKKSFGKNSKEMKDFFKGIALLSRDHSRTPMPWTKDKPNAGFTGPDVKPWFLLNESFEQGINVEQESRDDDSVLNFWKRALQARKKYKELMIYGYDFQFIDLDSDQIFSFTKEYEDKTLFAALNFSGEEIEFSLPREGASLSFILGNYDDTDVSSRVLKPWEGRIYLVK

Compound | pIC50 [2] | enzyme inhibition (in words) [2] | inhibition of amylase (in words) (alpha amylase) | other results
OC[C@H]1NC[C@H](O)[C@@H](O)[C@@H]1O [1-DNJ, 1-deoxynojirimycin] | – | – | – | upper efficacy limit / saturation dose above which no further reduction in glycemic response is obtained [1]: 250 mg
O=c1cc(-c2ccc(O)cc2)oc2cc(O)cc(O)c12 [Apigenin] | 4.05 | – | – | –
O=c1cc(-c2ccccc2)oc2cc(O)c(O)c(O)c12 [Baicalein] | 4.24 | – | – | –
O=c1cc(-c2ccccc2)oc2cc(O)cc(O)c12 [Chrysin] | – | – | – | inhibition at 200 µM ([2]; read-out: inhibition of yeast alpha-glucosidase at fixed concentration): < 20%
O=C1c2c(O)cc(O)cc2O[C@H](c2cc(O)c(O)c(O)c2)[C@H]1O [Dihydromyricetin, (2R,3R)-3,5,7-Trihydroxy-2-(3,4,5-trihydroxyphenyl)-2,3-dihydrochromen-4-one] | 5.40 | powerful enzyme inhibitors | effective at inhibiting amylase | –
O=c1cc(-c2ccc(O)c(O)c2)oc2cc(O)cc(O)c12 [Luteolin] | – | – | – | pIC50 [2, 3]: 4.46
O=c1c(O)c(-c2cc(O)c(O)c(O)c2)oc2cc(O)cc(O)c12 [Myricetin, 3,5,7-Trihydroxy-2-(3,4 trihydroxyphenyl)-4-chromenone] | 5.44 | powerful enzyme inhibitors | effective at inhibiting amylase | –
O=C(CCc1ccc(O)cc1)c1c(O)cc(O)cc1O [Phloretin] | – | – | – | pIC50 [2, 3]: 4.02
O=c1c(O)c(-c2ccc(O)c(O)c2)oc2cc(O)cc(O)c12 [Quercetin, 2-(3,4-dihydroxyphenyl)-3,5,7-trihydroxy-4H-chromen-4-one] | – | powerful enzyme inhibitors | effective at inhibiting amylase | –
